This is an account of results in paper PMC6270263, “Factors Influencing the Antifolate Activity of Synthetic Tea-Derived Catechins” (Molecules, 2013).

In data set [1] the test system is SK-MEL-28 melanoma cell line. Description: MTT cell proliferation assay in melanoma cells. As to conditions: SK-MEL-28, after 6 days of treatment, read-out: Half-maximal inhibitory concentration (IC50). The class given is cell-based, human. An excerpt:
Antifolate compounds are designed to inhibit DHFR and act specifically during DNA and RNA synthesis, making them more toxic to rapidly dividing cells. Recent evidences indicate that tea-catechins and derived compounds could inhibit DHFR and block the folate cycle in cancer cells. Although inhibition of DHFR by these compounds could be a plausible explanation for their antifolate activity, the possibility of these compounds targeting (folate)-enzymes other than DHFR could not be excluded. To determine whether these newly synthetized compounds disrupt the folate cycle in cell culture, we studied their antiproliferative activity in the melanoma cell line SK-MEL-28 (Table 3). Concentration- and time-dependent effects were analyzed using the colorimetric 4,5-(3)-dimethylthiazol-2-yl)-2,5-diphenyltetrazolium bromide (MTT) method.
The human melanoma cell line SK-MEL-28 was obtained from American Type Culture Collection (ATCC, Manassas, VA, USA) and was maintained in Eagles’s Minimum Essential Medium (EMEM) supplemented with 10% (v/v) FBS and antibiotics at 37 °C in a humidified atmosphere containing 7.5% CO2. Cell viability was evaluated using the MTT cell proliferation assay. Cells were evaluated for apoptosis using a cell death detection ELISA (Cell Death Detection ELISAPLUS, Roche Diagnostics, Barcelona, Spain). The principle of this test is the detection of mono- and oligonucleosomes in the cytoplasmic fractions of cell lysates using biotinylated anti-histone and peroxidase-coupled anti-DNA antibodies. The amount of nucleosomes is photometrically quantified at 405 nm by the peroxidase activity retained in the immunocomplexes. Apoptosis was defined as the specific enrichment of mono- and oligonucleosomes in the cytoplasm and was calculated by dividing the absorbance of treated samples with the absorbance of untreated samples after correcting for the number of cells. The induction of apoptosis in each melanoma cell line after a 7 h treatment with 2 μM staurosporin (100% apoptotic cells) was used to calculate the number of apoptotic cells. For these assays, cells were plated in a 96-well plate at a density of 1000–2000 cells/well. Compounds were added once at the beginning of the experiments.
For orientation: Tetrazolium assays rely on reduction of a dye to a coloured formazan, in cell work by metabolically active cells.

Data set [2] deals with T1, free recombinant human DHFR (rHDHFR) (Homo sapiens, UniProt P00374).
T1 construct: made in house; host or cells: Bombyx mori chrysalides
T1 sequence (P00374 1-187): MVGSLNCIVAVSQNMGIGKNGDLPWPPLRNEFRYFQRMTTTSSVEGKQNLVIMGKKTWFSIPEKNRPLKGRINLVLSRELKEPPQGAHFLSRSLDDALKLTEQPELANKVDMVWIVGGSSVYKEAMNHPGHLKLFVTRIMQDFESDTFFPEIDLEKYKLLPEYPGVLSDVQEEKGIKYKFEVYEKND
Briefly: Binding of polyphenols to free rHDHFR by fluorescence quenching titration. As to the method: Natural and synthetic derivatives of tea catechins have shown to be good inhibitors of human DHFR [7, 11, 16, 18]. To determine the ability of natural and synthetic polyphenols to bind DHFR, we performed a structure-activity study by analyzing the binding of these polyphenols to DHFR using fluorescence quenching. Effective binding to free recombinant human DHFR (rHDHFR) was determined by measuring the decrease in enzyme fluorescence that occurs upon the formation of the enzyme-inhibitor complex. […] The dissociation constants of the synthetic compounds were on the same order as those of the natural analogues, indicating the high DHFR binding capacities of these new derivatives.
The dissociation constants for the binding of polyphenols to free recombinant human DHFR (rHDHFR) were determined by fluorescence titration in an automatic-scanning FluoroMax-3 (Jobin Ybon, Horiba, Edison, NJ, USA) spectrofluorometer with 1.0 cm light path cells and a 150 W mercury-xenon light source. The formation of a binary complex between the enzyme (2.5 × 10^−7 M) and the ligand (from 0 to 40 µM) was followed by measuring the quenching of the tryptophan fluorescence of the enzyme upon the addition of microliter volumes of a concentrated stock solution of ligand. Experiments were performed at pH 7.5 in a buffer containing 2-(N-morpholino)ethanesulfonic acid (Mes, 0.025 M), sodium acetate (0.025 M), tris(hydroxymethyl)aminomethane (Tris 0.05 M), and NaCl (0.1 M). The temperature was controlled at 25 °C using a Haake D1G circulating bath with a heater and cooler. Fluorescence emission spectra were recorded when the human DHFR fluorescence was excited at 290 nm, and titrations were performed as described elsewhere.

Data set [3] addresses T2, human serum albumin (HSA) (Homo sapiens, UniProt P02768).
T2 construct: purchased Sigma-Aldrich
Description: HSA binding by fluorescence quenching. As to the method: Fluorescence measurements were made on an automatic scanning Perkin-Elmer LS50B spectrofluorometer with 1.0 cm light path cells equipped with a 150 W xenon (XBO) light source. […] A plot of log (F0-F)/F against log [Q] was used to determine the values of KA and n from the intercept and the slope, respectively. Binding of TMECG, EGCG, and EC to HSA was determined as specified for the BSA binding studies.

Data set [4] concerns the target T3, bovine serum albumin (BSA) (Bos taurus, UniProt P02769).
T3 construct: purchased Sigma-Aldrich
Description: Competitive site-marker (warfarin, ibuprofen) binding to BSA. As to conditions: for Kd: Binding constant (KA), BSA, 25 °C. As for the experimental part:
Next, the site selective binding of both EGCG and TMCG to BSA was analyzed. The capability of serum albumins to bind to aromatic and heterocyclic compounds is largely dependent on the existence of two major binding regions, namely site-I and site-II [25]. Warfarin and ibuprofen are fluorescence probes whose primary binding sites to BSA are site-I and site-II, respectively.
To identify the binding sites of EGCG and TMCG in BSA, the displacements of warfarin and ibuprofen (known to bind at site I and site II, respectively) were followed fluorometrically. Equimolar solutions of BSA and warfarin (5 × 10^−6 M each) were mixed for 1 h and titrated with EGCG and TMCG in separate experiments. Similar solutions containing equimolar ibuprofen and BSA were prepared and separately titrated with EGCG and TMCG to identify the binding sites of EGCG and TMCG with BSA. Titration was followed fluorometrically using an excitation wavelength of 280 nm.

Data set [5] concerns the target T3, bovine serum albumin (BSA). Description: BSA binding by fluorescence quenching. An excerpt:
Upon progressive additions of various concentrations of EGCG and TMCG to BSA, the emission intensity decreases, as shown in Figure 4(a). The quenching of the fluorescence intensity of BSA implies that the catechins bind at close proximity to the tryptophan and tyrosine residues and that the molecular arrangement of BSA is affected by the interactions. […] The binding constants (KA) for the BSA-EGCG and BSA-TMCG complexes are 1.54 × 10^7 M^−1 and 1.9 × 10^5 M^−1, respectively (Table 4), and their plots are shown in Figure 4(b). […] In light of these findings, it can be reasoned that the binding affinity to BSA is higher for the galloylated catechin than for the methylated one, which emphasises that the three phenolic groups can enhance hydrogen bonding between BSA and EGCG [25].
Fluorescence measurements were made on an automatic scanning Perkin-Elmer LS50B spectrofluorometer with 1.0 cm light path cells equipped with a 150 W xenon (XBO) light source. In all experiments, the fluorescence of BSA (5 × 10^−6 M) in 50 mM phosphate buffer of pH 7.5 was followed by excitation at 280 nm. The binding affinities of EGCG and TMCG with BSA in terms of binding constants were determined using the following equation [25]: log (F0−F)/F = log KA + n log [Q](1) where KA is the binding constant, n is the number of binding sites, F0 is the fluorescence intensity of free BSA and F is the consequent fluorescence upon the addition of catechins (Q). A plot of log (F0-F)/F against log [Q] was used to determine the values of KA and n from the intercept and the slope, respectively.

Data set [6] can be described thus: UV-visible absorption spectra at different pH (ionization state). The class given is physicochemical. As to conditions: for Effect of pH on absorption spectra: UV-visible spectra, pH range 5.0–9.0 for TMCG and TMECG. As for the experimental part: It has been shown that the protonation state of methotrexate, trimethoprim, and pyrimethamine modulates the binding of these antifolates to DHFRs from several sources. […] The absorbance maximum at 278 nm undergoes a bathochromic displacement to 328 nm, which is greatest at alkaline pH (pH > 9.0).
To determine if the spectral changes in the SYCG and SYECG solutions with pH were due to an irreversible oxidation reaction or to a reversible protonation step, a pH titration experiment was carried out. An alkaline solution of SYCG and SYECG (pH 8.5) was acidified to pH 2.5 by the addition of dilute HCl. A change in the spectra was observed, indicating a reversible protonation reaction. The spectral changes with pH observed in SYCG and SYECG can be attributed to the hydroxyl group para on the ester-bonded gallate moiety. At acidic pH, these derivatives are mainly present as protonated species, whereas at basic pH or values near neutrality, these derivatives evolve toward the deprotonated species, which are stabilized by resonance (Scheme 3). […] As described, an important factor that decreases catechin bioavailability might be their inability to easily cross cellular membranes by passive diffusion. The presence of several hydroxyl groups in these molecules gives them a high hydrophilic character, which increases the difficulty of passing across lipid membranes.
Ultraviolet-visible absorption spectra of catechins at different pHs were recorded on a UV-Vis Perkin-Elmer Lambda-2 spectrophotometer with a spectral bandwidth of 1 nm at a scan speed of 60 nm s^−1. The experiments were performed in the same buffer as described for DHFR binding studies, and the ionic strength remained constant at an optimum value of 0.15 over the pH range that was used. The pH of the reaction was measured before and after the experiment.

Where [7] appears, read: Table 2, restates Table 1, read-out: KD, order of binding strengths to rHDHFR depending on D-ring substitution.
[8] abbreviates: pH 7.5, 25 °C, fluorescence titration, read-out: Dissociation constant KD of free rHDHFR.
Where [9] appears, read: determined as for BSA binding studies, read-out: Binding affinity to HSA (KA) (converted).

Where two headings read alike, the source gives them in different places.

T3 sequence (P02769 25-607): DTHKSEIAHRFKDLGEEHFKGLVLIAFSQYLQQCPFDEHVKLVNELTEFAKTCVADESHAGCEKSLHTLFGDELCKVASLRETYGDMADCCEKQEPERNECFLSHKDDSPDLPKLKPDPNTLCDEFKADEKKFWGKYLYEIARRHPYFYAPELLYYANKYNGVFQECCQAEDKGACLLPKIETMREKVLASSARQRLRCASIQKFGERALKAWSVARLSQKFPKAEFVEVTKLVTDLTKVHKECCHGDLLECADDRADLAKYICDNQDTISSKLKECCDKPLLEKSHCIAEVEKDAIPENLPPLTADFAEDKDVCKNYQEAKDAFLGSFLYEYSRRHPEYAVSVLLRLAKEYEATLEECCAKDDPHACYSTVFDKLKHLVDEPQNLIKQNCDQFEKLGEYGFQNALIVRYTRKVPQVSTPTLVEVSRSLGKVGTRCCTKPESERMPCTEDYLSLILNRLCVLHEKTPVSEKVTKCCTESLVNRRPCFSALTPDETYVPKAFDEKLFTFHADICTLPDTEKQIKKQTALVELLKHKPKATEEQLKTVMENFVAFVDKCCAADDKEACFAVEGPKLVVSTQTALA
T2 sequence (P02768 25-609): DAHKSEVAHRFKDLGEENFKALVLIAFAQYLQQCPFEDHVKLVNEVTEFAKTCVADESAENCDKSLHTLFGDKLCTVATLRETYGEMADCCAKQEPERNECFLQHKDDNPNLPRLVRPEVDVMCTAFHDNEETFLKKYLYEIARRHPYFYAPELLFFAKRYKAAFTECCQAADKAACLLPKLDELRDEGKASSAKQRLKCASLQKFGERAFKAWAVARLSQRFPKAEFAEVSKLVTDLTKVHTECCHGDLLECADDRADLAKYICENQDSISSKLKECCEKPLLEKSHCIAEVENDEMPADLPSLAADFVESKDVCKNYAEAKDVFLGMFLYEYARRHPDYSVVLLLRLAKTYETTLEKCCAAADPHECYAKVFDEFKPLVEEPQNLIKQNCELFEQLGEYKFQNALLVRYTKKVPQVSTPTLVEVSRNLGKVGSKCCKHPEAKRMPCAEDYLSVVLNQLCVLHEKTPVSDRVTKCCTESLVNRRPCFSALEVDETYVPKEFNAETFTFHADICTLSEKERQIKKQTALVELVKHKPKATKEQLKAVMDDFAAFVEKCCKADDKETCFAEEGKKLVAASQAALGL

As for `COc1cc(C(=O)O[C@H]2Cc3c(OC(C)=O)cc(OC(C)=O)cc3O[C@@H]2c2ccc(OC(C)=O)c(OC(C)=O)c2)cc(OC)c1OC(C)=O` [ASYCG, 5,7,3’,4’,4’’-penta-O-acetyl-3-O-(3,5-dimethoxybenzoyl)-catechin], the melting point (in general, the temperature of the solid-liquid transition) lay in the range of 88 to 93 °C. The IC50 in data set [1] (Homo sapiens, SK-MEL-28, 144 h) was found to be 37400 ± 4000 nM.
Take `O=C(O[C@H]1Cc2c(O)cc(O)cc2O[C@@H]1c1ccc(O)c(O)c1)c1cc(O)c(O)c(O)c1` [CG, catechin-3-gallate, reference compound]: the IC50 in data set [1] (Homo sapiens, SK-MEL-28, 144 h) turned out to be 82200 ± 8000 nM. In addition, the Kd in data set [2] (setting [7]) was found to be 560 nM; in data set [2] (setting [8]) it was 560 ± 70 nM.
Consider `Oc1cc(O)c2c(c1)O[C@H](c1ccc(O)c(O)c1)[C@H](O)C2` [EC, epicatechin], for which, in data set [3] (setting [9]), the Kd was 312000 nM.
As to `O=C(O[C@@H]1Cc2c(O)cc(O)cc2O[C@@H]1c1ccc(O)c(O)c1)c1cc(O)c(O)c(O)c1` [ECG, epicatechin-3-gallate, reference compound], the IC50 in data set [1] (Homo sapiens, SK-MEL-28, 144 h) was > 100000 nM. Further, the Kd in data set [2] (setting [7]) was 810 nM; in data set [2] (setting [8]), 810 ± 90 nM.
With `O=C(O[C@@H]1Cc2c(O)cc(O)cc2O[C@@H]1c1cc(O)c(O)c(O)c1)c1cc(O)c(O)c(O)c1` [EGCG, epigallocatechin-3-gallate, reference compound], the Kd in data set [4] (site marker: Blank) is 64.9 nM; in data set [4] (site marker: Ibuprofen), 82 nM; in data set [4] (site marker: Warfarin) it was 7690 nM; in data set [3], 3850 nM; in data set [5], 64.9 nM. Also, in data set [4] (competition with warfarin (site-I) and ibuprofen (site-II)), the “Site selective binding to BSA” value is given as “higher specificity for site-I”. Also, the “Number of binding sites n” value in data set [5] (catechin-BSA complex, double logarithmic plot) is “approximately 1”.
`COc1cc(C(=O)O[C@H]2Cc3c(O)cc(O)cc3O[C@@H]2c2ccc(O)c(O)c2)cc(OC)c1OC(C)=O` [MASYCG, 3-O-(4-acetoxy-3,5-dimethoxybenzoyl)-catechin] returned a melting point of 118 to 122 °C. Also, in data set [1] (Homo sapiens, SK-MEL-28, 144 h), the IC50 is 60900 ± 6000 nM.
In turn, `COc1cc(C(=O)OC2Cc3c(O)cc(O)cc3OC2c2ccc(O)c(O)c2)cc(OC)c1O` (centres unmarked) [SYCG, 3-O-(4-hydroxy-3,5-dimethoxybenzoyl)-catechin] yielded a melting point of 110 to 114 °C. Moreover, in data set [1] (Homo sapiens, SK-MEL-28, 144 h), the IC50 was determined as 126000 ± 10000 nM. Moreover, the Kd in data set [2] (setting [7]) was 720 nM. In data set [2] (setting [8]), the Kd amounted to 720 ± 100 nM. Moreover, in data set [6], the “Effect of pH on absorption spectra” value was “strongly affected by the pH” and the “Ionization state at physiologic pH” value is on record as “partially in their ionic form”.
For `COc1cc(C(=O)OC2Cc3c(O)cc(O)cc3OC2c2ccc(O)c(O)c2)cc(OC)c1O` (centres unmarked) [SYECG, 3-O-(4-hydroxy-3,5-dimethoxybenzoyl)-epicatechin], the melting point fell in the range of 120 to 123 °C. The IC50 in data set [1] was found to be 199000 ± 12000 nM. Also, the Kd in data set [2] (setting [7]) came out at 770 nM. Besides, the Kd in data set [2] (setting [8]) turned out to be 770 ± 70 nM. For the same compound, in data set [6], the “Effect of pH on absorption spectra” value is “strongly affected by the pH” and the “Ionization state at physiologic pH” value is listed as “partially in their ionic form”.
For `COc1cc(C(=O)O[C@@H]2Cc3c(O)cc(O)cc3O[C@@H]2c2ccc(O)c(O)c2)cc(OC)c1OC` [TMECG], the Kd is 23800 nM in data set [3] (setting [9]), 2100 nM in data set [2] (setting [7]) and 2100 ± 200 nM in data set [2] (setting [8]). In addition, the IC50 in data set [1] (Homo sapiens, SK-MEL-28, 144 h) turned out to be 2500 ± 600 nM. In addition, in data set [6], the “Effect of pH on absorption spectra” value is given as “no significant changes”.
